Experimental data published in patent publication US20030195183A1, “Method for correcting immune system of live body” (priority 2000, published 2003).
Entries after “also recorded” stand apart in the source; their conditions may differ.

Key:
[1] = clinical case, treatment of duodenal ulcer; assay type: in vivo, human; details: Patient K
Experimental: Apart from the studies on animals described above, clinical studies of immunocorrection activity of amino derivatives of 2,3-dihydrophthalazine-1,4-dione represented by sodium salt of 5-amino-2,3-dihydrophthalazine-1,4-dione in the treatment of various diseases on human, in particular, anti-inflammatory immunocorrecting activity in the treatment of ulcers, were carried out.
Concomitant catarrhal bulbitis was present. The patient partly lost their working capacity due to this disease.
Treatment: Periulceral injection of 100 mg of sodium salt of 5-amino-2,3-dihydrophthalazine-1,4-dione was made. One more injection of the preparation was made on the 7th day. The patient also received the preparation in Almagel suspension and, since the 7th day, in Maalox (in view of constipations). They were simultaneously treated with omeprazol in accordance with usual regimen and, since the 7th day, De-nol with trichopol.

[2] = system: humoral immune response to ram erythrocytes; test: titers of hemagglutinins, preparation five days after immunization with RE (productive phase); assay type: in vivo, mice
[3] = system: humoral immune response to ram erythrocytes; test: titers of hemagglutinins after simultaneous administration of preparation and RE (inductive phase); assay type: in vivo, mice
[4] = anaphylactogenic activity; assay type: in vivo, guinea pigs
Experimental: Allergenic effects of the preparation were evaluated on female guinea pigs weighing 250 to 300 g supplied by RF AMS Central Brooder of Laboratory Animals. A total of 70 guinea pigs have been studied. Intraperitoneal and intradermal injections of the preparations were used.
The preparation under study was injected to three groups of guinea pigs in accordance with the following schedule: first 0.1-ml injection of various doses (1 μg, 10 μg and 100 μg) was made subcutaneously; second 0.1-ml injection of the preparation was made on the next day intramuscularly in the thigh; and the third 0.1-ml injection was made one day later. On day 21, the shocking injection of main pharmacological effect with single application was made.

[5] = 0.2 μg, Strain C57BL6 mice, 7 days
[6] = 0.2 μg, Strain C57BL6 mice, 14 days
[7] = 0.2 μg, Strain C57BL6 mice, 21 days
[8] = 0.2 μg, Strain CBA mice, 7 days
[9] = 0.2 μg, Strain CBA mice, 14 days
[10] = 0.2 μg, Strain CBA mice, 21 days
[11] = 2 μg, Strain C57BL6 mice, 7 days
[12] = 2 μg, Strain C57BL6 mice, 14 days
[13] = 2 μg, Strain C57BL6 mice, 21 days
[14] = 20 μg, Strain C57BL6 mice, 7 days
[15] = 20 μg, Strain C57BL6 mice, 14 days
[16] = 20 μg, Strain C57BL6 mice, 21 days
[17] = 20 μg, Strain CBA mice, 14 days
[18] = 20 μg, Strain CBA mice, 21 days
[19] = 200 μg, Strain C57BL6 mice, 7 days
[20] = 200 μg, Strain C57BL6 mice, 14 days
[21] = 200 μg, Strain C57BL6 mice, 21 days
[22] = 200 μg, Strain CBA mice, 7 days
[23] = 200 μg, Strain CBA mice, 14 days
[24] = 200 μg, Strain CBA mice, 21 days
[25] = sensitization 10 μg, shocking injection 100 μg, 10 animals
[26] = sensitization 100 μg, shocking injection 100 μg, 10 animals

## Nc1cccc2c(=O)[nH][nH]c(=O)c12.[Na] [sodium salt of 5-amino-2,3-dihydrophthalazine-1,4-dione]
[1]; 2nd day of treatment, with omeprazol and antacids
  pain: Significant weakening
[1]; 7th day
  pain: completely disappeared
[1]; by the 7th day
  decrease in ulcer dimensions: ⅓
[1]; by the 15th day of treatment
  decrease in dimensions of ulcerous defect: 2/3
[1]; by the 21st day, total of 1,000 mg
  scarring of ulcer: completely scarred
[2]; [5]
  Titers of hemagglutinins: 0
[2]; [6]
  Titers of hemagglutinins: 2 ± 0
[2]; [7]
  Titers of hemagglutinins: 35 ± 10
[2]; [8]
  Titers of hemagglutinins: 0
[2]; [9]
  Titers of hemagglutinins: 9 ± 7
[2]; [10]
  Titers of hemagglutinins: 0
[2]; [11]
  Titers of hemagglutinins: 13 ± 11
[2]; [12]
  Titers of hemagglutinins: 54 ± 50
[2]; [13]
  Titers of hemagglutinins: 226 ± 201
[2]; 2 μg, Strain CBA mice, 7 days
  Titers of hemagglutinins: 10 ± 8
[2]; 2 μg, Strain CBA mice, 14 days
  Titers of hemagglutinins: 173 ± 110
[2]; 2 μg, Strain CBA mice, 21 days
  Titers of hemagglutinins: 22 ± 10
[2]; [14]
  Titers of hemagglutinins: 26 ± 19
[2]; [15]
  Titers of hemagglutinins: 256 ± 0
[2]; [16]
  Titers of hemagglutinins: 304 ± 105
[2]; 20 μg, Strain CBA mice, 7 days
  Titers of hemagglutinins: 0
[2]; [17]
  Titers of hemagglutinins: 236 ± 0
[2]; [18]
  Titers of hemagglutinins: 23 ± 10
[2]; [19]
  Titers of hemagglutinins: 0
[2]; [20]
  Titers of hemagglutinins: 96 ± 42
[2]; [21]
  Titers of hemagglutinins: 120 ± 95
[2]; [22]
  Titers of hemagglutinins: 28 ± 13
[2]; [23]
  Titers of hemagglutinins: 158 ± 120
[2]; [24]
  Titers of hemagglutinins: 47 ± 30
[2]; all doses, Strain CBA mice of high reaction
  effect on productive phase of immune response: suppressive effect
[2]; low reaction Strain C57BL6 mice, 21st day
  level (titers) of hemagglutinins: tendency to increase; also recorded: significant increase
[2]; wide range of doses, Strain CBA mice, 7th and 14th days after immunization
  production of antibodies: inhibition
[3]; [5]
  Titers of hemagglutinins: 59 ± 58
[3]; [6]
  Titers of hemagglutinins: 50 ± 48
[3]; [7]
  Titers of hemagglutinins: 266 ± 200
[3]; [8]
  Titers of hemagglutinins: 112 ± 106
[3]; [9]
  Titers of hemagglutinins: 168 ± 109
[3]; [10]
  Titers of hemagglutinins: 15 ± 13
[3]; [11]
  Titers of hemagglutinins: 154 ± 57
[3]; [12]
  Titers of hemagglutinins: 256 ± 0
[3]; [13]
  Titers of hemagglutinins: 24 ± 20
[3]; 2 μg, Strain CBA mice, 7 days
  Titers of hemagglutinins: 28 ± 26
[3]; 2 μg, Strain CBA mice, 14 days
  Titers of hemagglutinins: 154 ± 97
[3]; 2 μg, Strain CBA mice, 21 days
  Titers of hemagglutinins: 10 ± 8
[3]; [14]
  Titers of hemagglutinins: 91 ± 64
[3]; [15]
  Titers of hemagglutinins: 512 ± 0
[3]; [16]
  Titers of hemagglutinins: 560 ± 160
[3]; 20 μg, Strain CBA mice, 7 days
  Titers of hemagglutinins: 96 ± 37
[3]; [17]
  Titers of hemagglutinins: 256 ± 0
[3]; [18]
  Titers of hemagglutinins: 83 ± 70
[3]; [19]
  Titers of hemagglutinins: 512 ± 0
[3]; [20]
  Titers of hemagglutinins: 44 ± 42
[3]; [21]
  Titers of hemagglutinins: 160 ± 138
[3]; [22]
  Titers of hemagglutinins: 35 ± 33
[3]; [23]
  Titers of hemagglutinins: 75 ± 59
[3]; [24]
  Titers of hemagglutinins: 46 ± 32
[3]; Strain C57BL6 animals of low reaction, 21st day, 0.2 or 20 μg per mouse
  titers of hemagglutinins (trend): tendency to increase
[4]; demonstrated only for high doses
  expression of anaphylactic activity: very weak
[4]; sensitization 1.0 μg, shocking injection 100 μg, 10 animals
  Number of animals with expression of anaphylactic shock −: 10
[4]; sensitization 10 μg, shocking injection 100 μg
  Weigl's index: 0.2
[4]; [25]
  Number of animals with expression of anaphylactic shock +: 2
  Number of animals with expression of anaphylactic shock −: 7
[4]; sensitization 100 μg, shocking injection 100 μg
  Weigl's index: 0.3
[4]; [26]
  Number of animals with expression of anaphylactic shock +: 1
  Number of animals with expression of anaphylactic shock ++: 1
  Number of animals with expression of anaphylactic shock −: 5
